Reference: patent US10597388B2, “Pyridazinone herbicides” (FMC CORPORATION, priority 2014, dated 2020)

What was measured:
Format in all cases: in vivo
[1] = system: blackgrass (Alopecurus myosuroides); experiment: Test C greenhouse herbicide test, pre- and postemergence
Method in brief: (§1)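 Percent-control ratings (0 none, 100 complete) came from visual comparison with controls held alongside in the greenhouse for 13–15 d. Treatments covered soil application at sowing and foliar application to young plants 2–18 cm tall.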

corn (Zea mays) = experiment: as above
Method in brief: as §1

[2] = system: crabgrass, large (large crabgrass, Digitaria sanguinalis); experiment: as above
Method in brief: as §1

[3] = system: foxtail, giant (giant foxtail, Setaria faberii); experiment: as above; conditions: Postemergence
Method in brief: as §1

[4] = system: johnsongrass (Sorghum halepense); experiment: as above
Method in brief: as §1

[5] = system: lambsquarters (Chenopodium album); experiment: as above
Method in brief: as §1

[6] = system: morningglory (Ipomoea coccinea); experiment: as above
Method in brief: as §1

[7] = system: nutsedge, yellow (yellow nutsedge, Cyperus esculentus); experiment: as above
Method in brief: as §1

[8] = system: oilseed rape (Brassica napus); experiment: as above
Method in brief: as §1

[9] = system: pigweed (Amaranthus retroflexus); experiment: as above
Method in brief: as §1

[10] = system: ragweed (common ragweed, Ambrosia elatior); experiment: as above
Method in brief: as §1

[11] = system: ryegrass, Italian (Italian ryegrass, Lolium multiflorum); experiment: as above
Method in brief: as §1

soybean (Glycine max) = experiment: as above
Method in brief: as §1

[12] = system: waterhemp (common waterhemp, Amaranthus rudis); experiment: as above
Method in brief: as §1

[13] = system: wheat (winter wheat, Triticum aestivum); experiment: as above
Method in brief: as §1

kochia (Kochia scoparia) = experiment: Test C greenhouse herbicide test, postemergence; conditions: Postemergence
Method in brief: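 Seedlings are raised in pots of peat moss–vermiculite medium with starter nutrients, then receive postemergence test chemical at the 1- to 4-leaf stage. They are kept in the greenhouse 13 to 15 d and scored visually versus controls, 0 meaning no effect and 100 complete control.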

[14] = Postemergence, 31 g ai/ha, scale 0 to 100 (0 no effect, 100 complete control)
[15] = Postemergence, 125 g ai/ha, scale 0 to 100, 0 is no effect, 100 is complete control
[16] = Postemergence, 250 g ai/ha, scale 0 to 100, 0 no effect, 100 complete control, 13 to 15 d
[17] = Preemergence, 31 g ai/ha, scale 0 to 100, 0 is no effect, 100 is complete control
[18] = Preemergence, 62 g ai/ha, scale 0 to 100, 0 is no effect, 100 is complete control
[19] = Preemergence, 125 g ai/ha, scale 0 to 100, 0 is no effect, 100 is complete control
[20] = Preemergence, 250 g ai/ha, scale 0 to 100 (0 no effect, 100 complete control)
[21] = postemergence, 62 g ai/ha, scale 0 to 100, 0 no effect, 100 complete control
[22] = 31 g ai/ha, scale 0 to 100 (0 no effect, 100 complete control)
[23] = 125 g ai/ha, scale 0 to 100, 0 is no effect, 100 is complete control
[24] = 250 g ai/ha, scale 0 to 100, 0 no effect, 100 complete control, 13 to 15 d

Compound: CCC(=O)Oc1c(Cl)nn(C)c(=O)c1-c1c(C)sc2ccc(Cl)cc12 [Compound 111]
- Plant response rating, Blackgrass [1, 14]: 0
- Plant response rating, Blackgrass [1, 15]: 20
- Plant response rating, Blackgrass [1, 16]: 35
- Plant response rating, Blackgrass [1, 17]: 0
- Plant response rating, Blackgrass [1, 18]: 5
- Plant response rating, Blackgrass [1, 19]: 5
- Blackgrass plant response rating [1, 20]: 20
- Blackgrass plant response rating [1, 21]: 5
- Plant response rating, Corn (corn (Zea mays); [14]): 5
- Plant response rating, Corn (corn (Zea mays); [15]): 15
- Plant response rating, Corn (corn (Zea mays); [16]): 10
- Plant response rating, Corn (corn (Zea mays); [17]): 0
- Plant response rating, Corn (corn (Zea mays); [18]): 0
- Plant response rating, Corn (corn (Zea mays); [19]): 0
- Corn plant response rating (corn (Zea mays); [20]): 15
- Corn plant response rating (corn (Zea mays); [21]): 10
- Plant response rating, Crabgrass, Large [2, 14]: 10
- Plant response rating, Crabgrass, Large [2, 15]: 25
- Plant response rating, Crabgrass, Large [2, 16]: 25
- Plant response rating, Crabgrass, Large [2, 17]: 5
- Plant response rating, Crabgrass, Large [2, 18]: 5
- Plant response rating, Crabgrass, Large [2, 19]: 85
- Crabgrass, Large plant response rating [2, 20]: 80
- Crabgrass, Large plant response rating [2, 21]: 20
- Plant response rating, Foxtail, Giant [3, 22]: 15
- Plant response rating, Foxtail, Giant [3, 23]: 70
- Plant response rating, Foxtail, Giant [3, 24]: 85
- Plant response rating, Johnsongrass [4, 14]: 10
- Plant response rating, Johnsongrass [4, 15]: 15
- Plant response rating, Johnsongrass [4, 16]: 10
- Plant response rating, Johnsongrass [4, 17]: 0
- Plant response rating, Johnsongrass [4, 18]: 0
- Plant response rating, Johnsongrass [4, 19]: 0
- Johnsongrass plant response rating [4, 20]: 20
- Plant response rating, Lambsquarters [5, 14]: 90
- Plant response rating, Lambsquarters [5, 15]: 100
- Plant response rating, Lambsquarters [5, 16]: 100
- Plant response rating, Lambsquarters [5, 17]: 90
- Plant response rating, Lambsquarters [5, 18]: 95
- Plant response rating, Lambsquarters [5, 19]: 90
- Lambsquarters plant response rating [5, 20]: 95
- Plant response rating, Morningglory [6, 14]: 100
- Plant response rating, Morningglory [6, 15]: 100
- Plant response rating, Morningglory [6, 16]: 100
- Plant response rating, Morningglory [6, 17]: 50
- Plant response rating, Morningglory [6, 18]: 70
- Plant response rating, Morningglory [6, 19]: 95
- Morningglory plant response rating [6, 20]: 98
- Plant response rating, Nutsedge, Yellow [7, 14]: 35
- Plant response rating, Nutsedge, Yellow [7, 15]: 65
- Plant response rating, Nutsedge, Yellow [7, 16]: 75
- Plant response rating, Nutsedge, Yellow [7, 17]: 0
- Plant response rating, Nutsedge, Yellow [7, 18]: 20
- Plant response rating, Nutsedge, Yellow [7, 19]: 75
- Nutsedge, Yellow plant response rating [7, 20]: 90
- Plant response rating, Oilseed Rape [8, 14]: 80
- Plant response rating, Oilseed Rape [8, 15]: 95
- Plant response rating, Oilseed Rape [8, 16]: 100
- Plant response rating, Oilseed Rape [8, 17]: 0
- Plant response rating, Oilseed Rape [8, 18]: 98
- Plant response rating, Oilseed Rape [8, 19]: 100
- Oilseed Rape plant response rating [8, 20]: 100
- Plant response rating, Pigweed [9, 14]: 85
- Plant response rating, Pigweed [9, 15]: 90
- Plant response rating, Pigweed [9, 16]: 98
- Plant response rating, Pigweed [9, 17]: 98
- Plant response rating, Pigweed [9, 18]: 90
- Plant response rating, Pigweed [9, 19]: 98
- Pigweed plant response rating [9, 20]: 100
- Plant response rating, Ragweed [10, 14]: 98
- Plant response rating, Ragweed [10, 15]: 98
- Plant response rating, Ragweed [10, 16]: 100
- Plant response rating, Ragweed [10, 17]: 60
- Plant response rating, Ragweed [10, 18]: 75
- Plant response rating, Ragweed [10, 19]: 90
- Ragweed plant response rating [10, 20]: 98
- Plant response rating, Ryegrass, Italian [11, 14]: 85
- Plant response rating, Ryegrass, Italian [11, 15]: 95
- Plant response rating, Ryegrass, Italian [11, 16]: 95
- Plant response rating, Ryegrass, Italian [11, 17]: 10
- Plant response rating, Ryegrass, Italian [11, 18]: 90
- Plant response rating, Ryegrass, Italian [11, 19]: 85
- Ryegrass, Italian plant response rating [11, 20]: 95
- Plant response rating, Soybean (soybean (Glycine max); [14]): 0
- Plant response rating, Soybean (soybean (Glycine max); [15]): 5
- Plant response rating, Soybean (soybean (Glycine max); [16]): 10
- Plant response rating, Soybean (soybean (Glycine max); [19]): 0
- Soybean plant response rating (soybean (Glycine max); [20]): 0
- Plant response rating, Waterhemp [12, 14]: 40
- Plant response rating, Waterhemp [12, 15]: 55
- Plant response rating, Waterhemp [12, 16]: 70
- Plant response rating, Waterhemp [12, 17]: 50
- Plant response rating, Waterhemp [12, 18]: 65
- Plant response rating, Waterhemp [12, 19]: 75
- Waterhemp plant response rating [12, 20]: 85
- Plant response rating, Wheat [13, 14]: 10
- Plant response rating, Wheat [13, 15]: 15
- Plant response rating, Wheat [13, 16]: 25
- Plant response rating, Wheat [13, 17]: 0
- Plant response rating, Wheat [13, 18]: 5
- Plant response rating, Wheat [13, 19]: 20
- Wheat plant response rating [13, 20]: 40
- Plant response rating, Kochia (kochia (Kochia scoparia); [22]): 80
- Plant response rating, Kochia (kochia (Kochia scoparia); [23]): 90
- Plant response rating, Kochia (kochia (Kochia scoparia); [24]): 95
